# pIC50: −log10 of the molar value.
# Legend:
# [1] = molecular target: T1, T7 primase (gp4) with gp5/trx (Escherichia phage T7, UniProt P03692); test: Primase dependent DNA synthesis (gp4 primers extended by gp5/trx on M13 ssDNA); format: biochemical, bacteriophage T7; details: 350 μM of each small molecule, FIG. 4B
# T1 construct: the helicase-primase (gene product 4, gp4, full-length) was run; made in house
# Method: Primase dependent DNA synthesis: RNA primers made by gp4A were extended by gp5/trx. The reaction mixture contained 10 nM M13 ssDNA, 0.3 mM dNTPs, 0.1 μCi [α-^32P] dCTP, 20 nM gp5/trx, 200 nM monomeric gp4A, and 350 μM of each compound. The reaction was incubated for 45 min at 37° C. Reaction was terminated and amount of DNA synthesis was determined as described in DNA polymerase assay.
# Small molecules that inhibit the concerted activity of primase and DNA polymerase: To evaluate the ability of the small molecule candidates to inhibit the primase-dependent replication of the lagging strand of bacteriophage DNA, an overall assay that involved the concerted activity of DNA polymerase (gene product 5 and E. coli thioredoxin, gp5/trx) and the helicase-primase (gene product 4, gp4, full-length) was run. In bacteriophage T7, lagging strand DNA synthesis involves interactions between gp5/trx and gp4. Full-length gp4 is required for the synthesis of oligoribonucleotides to initiate the synthesis of Okazaki fragments.
# To examine the effect of 350 μM of each small molecule on the synthesis of primers and their transfer to gp5/trx, M13 ssDNA for the synthesis of oligoribonucleotides by the primase and their extension by gp5/trx was used (FIG. 4b, inset). To initiate DNA synthesis, the primase must first synthesize tetraribonucleotides on the DNA and then transfer them to gp5/trx. In addition to the four dNTPs, ATP and CTP were also provided, and the primers that were synthesized included pppACCC, pppACAC, and pppACCA.
# The Table in FIG. 6A presents the inhibitory effect of various small molecules on primase-dependent DNA synthesis mediated by gp5/trx and gene 4 helicase (gp4A). The standard reaction contained the ssM13 DNA template (10 nM), 0.3 mM dATP, dGTP, dCTP and [α-^32P] dTTP (0.1 mCi), 10 nM gp5/trx, 200 nM monomeric concentrations of […] and 250 μM of small molecule inhibitors. After incubation for 30 min at 37° C., the level of […] was determined based on the amount of [α-^32P] dTTP incorporated into DNA.
# T7 DNA primase [2] = molecular target: T2, T7 DNA primase (Escherichia phage T7, UniProt P03692); test: [1H,15N]-TROSY HSQC titration of labeled primase with compounds; format: binding, bacteriophage T7; details: compared to free T7 primase
# T2 construct: T7 primase domain (residue: 1-271) was over-produced and purified using metal free buffers; made in house; host or cells: E. coli Bl21(DE3) containing pETg4P
# Method: [^1H,^15N]-TROSY HSQC titration spectra of 15N,D T7 DNA primase with selected fragment molecules and compounds 1, 12, 13, 15, 17, ATP, and DNA were recorded at 25° C. on a Bruker DMX 800 MHz spectrometer equipped with TXI cryoprobes with Z gradient. Data were processed and analyzed using NMRPipe (Journal of Biomolecular NMR 6, 277-293 (1995)) and NMRView (Journal of Biomolecular Nmr 4, 603-614 (1994)).
# Structural analysis of inhibitor-primase interactions: To characterize the binding of the compounds identified using FBVS, the [^15N, ^1H]-TROSY-HSQC spectra of ^15N- and D-labeled T7 primase in the presence of the selected lead compounds (FIGS. 7A-B) were measured. […] Relative to the initial scaffold alone, those shifts were more pronounced, which indicates stronger binding interactions. In addition, chemical shift perturbations upon the addition of DNA and ATP/CTP to the T7 primase domain confirmed that all three compounds bind to the active site. […] Compounds 12 and 15, whose polar dissolution values were the lowest from among the five inhibitors, were not able to achieve the concentrations needed for the protein-NMR experiments.
# [3] = Polar dissolution of inhibitors for protein-NMR experiments; format: physicochemical; details: among the five inhibitors
# T7 primase domain = molecular target: T3, T7 primase domain (Escherichia phage T7, UniProt P03692); test: Oligoribonucleotide (pppAC diribonucleotide) synthesis assay; format: biochemical, bacteriophage T7; details: pppAC synthesis by T7 primase domain; four parameter logistic fit
# T3 construct: T7 primase domain (residue: 1-271) was over-produced and purified using metal free buffers; made in house; host or cells: E. coli Bl21(DE3) containing pETg4P
# Method: Oligoribonucleotide Synthesis Assay: Oligoribonucleotides were synthesized by DNA primase, product was measured as described in J Biol Chem 272, 5943-51 (1997) and in J Biol Chem 266, 23240-50 (1991), in reactions containing various concentrations (1.1, 3.3, and 10 μM) of gene 4 primase domain. Standard 10 μL reaction contained 5 μM of DNA template (5′-GGGTCA10-3′), 200 μM ATP, 200 μM [α-^32P]-CTP, and primase domain in a buffer containing 40 mM Tris-HCl (pH 7.5), 10 mM MnCl2, 10 mM DTT, and 50 mM potassium glutamate. […]
# (§1) Small molecules that inhibit primase activity: to catalyze the synthesis of short RNA primers, T7 primase requires DNA with a primase recognition site, ATP and CTP, and a buffer containing divalent metal ions. […] The radioactively labeled oligoribonucleotides were separated on a denaturing polyacrylamide gel, and radioactivity was measured on an autoradiogram. The amounts of RNA-primed DNA syntheses were determined by measuring the incorporation of dTMP (see Methods). […]
# The reaction conditions involve incubating the primase domain with an oligonucleotide containing a primase recognition sequence. […] After incubation, the radioactive products were analyzed by electrophoresis through 25% polyacrylamide gel containing 3 M urea and visualized using autoradiography.
# T7 DNA primase [4] = molecular target: T2, T7 DNA primase; test: Fragment based screening by STD NMR spectroscopy; format: binding, bacteriophage T7; details: ranked by total change in intensity and number of affected peaks; Maybridge Ro3 library
# Method: NMR experiments—Fragment Based Screening: T7 primase was screened against the Maybridge Ro3 Diversity Fragment Library containing 1000 compounds using STD spectroscopy. Samples for 1D ligand-observed NMR studies contained […] T7 primase in 50 mM phosphate buffer in D2O and 10 compounds, resulting in a total of 100 samples. NMR spectra were recorded on a Bruker Avance 500 MHz equipped with a TXO cryoprobe with Z gradient and a NMR-CASE sample changer at 298 K. Ligand binding was probed using a saturation transfer difference pulse program. Saturation was achieved using on-resonance irradiation at 0 ppm with a train of Wurst pulses for a total saturation time of 1.5 s. Off resonance irradiation was centered at 40 ppm. Spectra were acquired with a sweep width of 8012.8 Hz, 8192 data points and 224 scans. Active compounds were identified by comparing the STD spectra with the corresponding reference spectra using the MestreNova software. Any compound with reduced peak intensities was considered a hit and ranked according to the percentage of intensity decrease and the number of affected peaks per compound.
# Using the Maybridge Ro3 fragment library containing 1000 fragments, 100 NMR samples were prepared, each containing a mixture of 10 fragments and 50 μM T7 primase.
# The 10 fragments were chosen to show minimal overlap of their 1H chemical shift to allow easy identification of the shifts. […]
# [5] = molecular target: T4, T7 DNA primase (primase domain of bacteriophage T7 gene 4 protein, residues 1-271) (Escherichia phage T7, UniProt P03692); test: Oligoribonucleotide synthesis assay: template-directed diribonucleotide (pppAC) synthesis catalyzed by the T7 DNA primase domain (FIG. 5); format: biochemical; details: T7 gene 4 primase domain (residues 1-271, expressed in E. coli BL21(DE3)); DNA template with recognition site 5'-GTC-3' (5'-GGGTCA10-3'), ATP, [α-32P]-CTP, 10 mM MnCl2, pH 7.5; gel autoradiography of pppAC; four parameter logistic fit; parenthesised figure not explained
# T4 construct: T7 primase domain (residue: 1-271) was over-produced and purified; made in house; host or cells: E. coli BL21(DE3), plasmid pETg4P
# Excerpt: FIGS. 5A-C present a scheme summarizing the assay in which the DNA template containing the primase recognition site 5′-GTCA10-3′ enables the synthesis of only diribonucleotides pppAC (FIG. 5A), and gel bands and quantification of gel bands representing the reaction products (5′-pppAC-3′) (FIG. 5B and FIG. 5C, respectively).
# Protein expression and purification: Proteins and Reagents. All chemical reagents were of molecular biology grade (Sigma); ATP and CTP (Roche Molecular Biochemicals). dNTPs and ddNTPs were purchased from USB Corp. Premade gels (10-20% linear gradients) used for SDS-PAGE and Precision Plus Protein prestained standards were purchased from BioRad (Hercules, Calif.). T7 primase domain (residue: 1-271) was over-produced and purified using metal free buffers as previously described in Mol Cell 11, 1349-60 (2003). T7 gp5 and E. Coli trx were overproduced and purified as described in J. Biol. Chem. 262, 16224-32 (1987). Gp4 was overproduced and purified as described in J. Biol. Chem. 272, 18425-33 (1997). M13 ssDNA was prepared as described in J. Biol. Chem. 261, 15208-16 (1986). [α-^32P]-CTP (800 Ci/mmol) was purchased from Perkin Elmer.
# Oligoribonucleotide Synthesis Assay: Oligoribonucleotides were synthesized by DNA primase, product was measured as described in J Biol Chem 272, 5943-51 (1997) and in J Biol Chem 266, 23240-50 (1991), in reactions containing various concentrations (1.1, 3.3, and 10 μM) of gene 4 primase domain. […]
# as §1
# T2 sequence (P03692 1-271): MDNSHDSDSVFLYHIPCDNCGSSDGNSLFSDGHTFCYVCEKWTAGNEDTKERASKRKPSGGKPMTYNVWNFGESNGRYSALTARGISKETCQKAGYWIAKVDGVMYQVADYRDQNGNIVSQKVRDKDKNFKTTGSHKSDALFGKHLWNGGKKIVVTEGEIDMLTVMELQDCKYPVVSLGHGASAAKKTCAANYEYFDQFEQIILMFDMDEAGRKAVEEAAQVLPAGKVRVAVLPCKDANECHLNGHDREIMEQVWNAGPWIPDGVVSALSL
# T4 sequence (P03692 1-271): as above
# T1 sequence (P03692 whole entry): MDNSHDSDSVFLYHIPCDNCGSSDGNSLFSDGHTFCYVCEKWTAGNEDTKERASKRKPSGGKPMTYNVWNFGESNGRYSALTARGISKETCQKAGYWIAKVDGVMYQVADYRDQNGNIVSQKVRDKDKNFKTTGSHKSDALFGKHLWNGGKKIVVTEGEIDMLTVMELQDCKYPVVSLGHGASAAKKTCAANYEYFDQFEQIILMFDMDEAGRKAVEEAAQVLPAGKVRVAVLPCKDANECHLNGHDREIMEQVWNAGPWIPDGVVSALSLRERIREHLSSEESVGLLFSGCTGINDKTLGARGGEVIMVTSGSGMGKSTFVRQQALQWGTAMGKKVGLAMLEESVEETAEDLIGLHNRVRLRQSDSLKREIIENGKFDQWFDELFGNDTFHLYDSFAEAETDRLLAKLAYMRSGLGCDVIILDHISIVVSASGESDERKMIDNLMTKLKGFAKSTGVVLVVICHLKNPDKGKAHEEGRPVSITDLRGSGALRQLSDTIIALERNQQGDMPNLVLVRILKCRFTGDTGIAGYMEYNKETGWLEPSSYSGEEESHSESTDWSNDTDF
# T3 sequence (P03692 1-271): as the sequence (P03692 1-271) above
SMILES,decrease of primase dependent DNA synthesis [1],chemical shift perturbations of T7 primase upon compound addition (T7 DNA primase [2]),pIC50 [5],further results
"O=C(O)c1cc2cccc([N+](=O)[O-])c2[nH]1 [compound 17, 7-nitro-1H-indole-2-carboxylic acid]",decreases by up to four-fold,significant chemical shift perturbations,,
"O=C1Cc2c([nH]c3ccc([N+](=O)[O-])cc23)-c2ccccc2N1 [compound 12, 9-Nitro-7,12-dihydroindolo-[3,2-d][1]benzazepin-6(5)-one]",decreases by up to four-fold,,,polar dissolution values [3]: lowest; Hill coefficient (T7 primase domain): highest value
c1ccc2[nH]ccc2c1 [indole],,,,binding to T7 primase by STD spectroscopy (decrease in NMR peak intensities) (T7 DNA primase [4]): strongest binding
"O=C(Nc1ccc2c(c1)OCO2)c1cc2cccc([N+](=O)[O-])c2[nH]1 [compound 15, N-(1,3-benzodioxol-5-yl)-7-nitro-1H-indole-2-carboxamide]",decreases by up to four-fold,,,polar dissolution values [3]: lowest
"O=C1Cc2c([nH]c3ccc([N+](=O)[O-])cc23)-c2ccccc2N1 [Compound 12, 9-Nitro-7,12-dihydroindolo-[3,2-d][1]benzazepin-6(5)-one]",,,3.96,
"CCOC(=O)c1[nH]c2ccc([N+](=O)[O-])cc2c1CCC(=O)O [compound 13, 3-[2-(ethoxycarbonyl)-5-nitro-1H-indol-3-yl]propanoic acid]",decreases by up to four-fold,significant chemical shift perturbations,,
"O=C(Nc1ccc2c(c1)OCO2)c1cc2cccc([N+](=O)[O-])c2[nH]1 [Compound 15, N-(1,3-benzodioxol-5-yl)-7-nitro-1H-indole-2-carboxamide]",,,4.25,
NC(=S)C1=Cc2ccccc2OC1 [2H-chromene-3-carbothioamide],,,,binding to T7 primase by STD spectroscopy (decrease in NMR peak intensities) (T7 DNA primase [4]): strongest binding
"O=C(O)/C=C/C1=Cc2cc(Cl)ccc2OC1 [compound 1, (2E)-3-(6-chloro-2H-chromen-3-yl)acrylic acid]",decreases by up to four-fold,significant chemical shift perturbations,,
"O=C(O)c1cc2cccc([N+](=O)[O-])c2[nH]1 [Compound 17, 7-nitro-1H-indole-2-carboxylic acid]",,,3.50,

# Source: US11339189B2, “DNA primase and gyrase inhibitors” (B. G. NEGEV TECHNOLOGIES AND APPLICATIONS LTD., AT …, priority 2016, dated 2022)
